Laboratory results: a melting point compilation (Tetko et al.; mined from patent text by program, amines drawn as free bases though some values may be those of a salt)

Structure (SMILES)	melting point [°C]
C#CCN(Cc1cc2c(=O)n(C)c(COS(C)(=O)=O)nc2cc1Cl)c1ccc(C(=O)OC(C)(C)C)cc1	204 to 205
CON=C(C(=O)O)c1nc(N)c(Cl)cc1Cl	139 to 144
O=C(O)c1cn(C2CC2)c2c(F)c(N3CCC4(C3)OCCCO4)c(F)cc2c1=O	226 to 227
CC(C)(CNC=O)c1ccc2nc(C3CCNCC3)[nH]c2c1	234 to 237
COC(=O)c1nc2ccccc2c(N)c1C(=O)OC	167 to 168
CCOc1nn(Cc2cncc(OCc3nc(-c4ccccc4)oc3C)c2)cc1CCC(=O)O	133 to 134
CCOC(=O)Oc1ccc(S(=O)(=O)N2c3cc(F)c(F)cc3-n3cccc3C2C)cc1 (stereo unspecified)	89 to 91
COc1nccnc1NS(=O)(=O)c1ccc(Cl)s1	119 to 120
Brc1ccccc1Oc1nc2ccccc2n2cncc12	180 to 182
Cc1cc(C(C)(CC(=O)c2ccccc2)c2ccccc2)ccc1O (stereo unspecified)	137
CCn1nc(C(=O)OCc2ccccc2)cc(Nc2cnccc2C)c1=O	137 to 138
O=Cc1ccc(-c2ccc(O)cc2)c2ccsc12	203 to 204
Cc1ccc(-c2ccc3c(c2)C=C(C(=O)Nc2ccc(CN4CCCCC4)cc2)CCC3)cc1	192 to 193
CCCCn1nc(C(F)(F)CC)nc1Cc1ccc(-c2ccccc2-c2nnn[nH]2)nc1	98 to 100
CC(C)(C)N1C(=O)c2cc([N+](=O)[O-])c(Cl)nc2C1=O	100 to 104
CC(=O)Nc1ccc(Cl)c(O)c1	212
CC(=O)c1cccc2nc[nH]c12	220 to 223
CC1CN(c2cc3c(cc2F)C(=O)c2nc4ccccc4c(=O)n2-3)CCN1 (stereo unspecified)	225 to 227
CCOP(=O)(/C=C/c1cn(-c2ccccc2)nc1OCc1ccc(OCc2nc(-c3cccc(C#N)c3)oc2C)c(OC)c1)OCC	147 to 148
C[C@@H](NC(=O)c1cnn(-c2ccc(C(F)(F)F)cc2)c1N)[C@](O)(Cn1cncn1)c1ccc(F)cc1F	208 to 210
CCCCc1c2ccccc2c(C=O)c2ccccc12	79
CC1(C)CCC(C)(C)c2cc(CCOc3ccc(C(=O)O)c(O)c3)ccc21	210 to 212
COc1ccc(Br)cc1S(=O)(=O)NC(C)(C)CO	168
Nc1nccc(OCCc2ccccc2)c1[N+](=O)[O-]	131 to 132

Structure (SMILES)	melting point [°C]
CCOC(=O)COc1ccc(CN2C(=O)C3(COc4cc5c(cc43)CCO5)c3ccccc32)cc1 (stereo unspecified)	158 to 159
Cc1cc2ccccc2c(Oc2ccc(/C=C/C(=O)O)cc2)c1-c1ccccc1	224 to 225
CCOc1cc2c(cc1OCC)-c1c(OCC)c(OCC)cc3c1C(C2)N(C)CC3O (stereo unspecified)	140 to 142
Cc1ccc(Cl)cc1N1CCCN(C)C1=S	143 to 145
NC(=O)Cn1c(Cl)ccc1Cl	183 to 184
CCOCc1nc2c(N)nc3ccccc3c2n1CCC1(O)CC1	210 to 211
OP(O)C(NC(c1ccccc1)c1ccccc1)c1ccc2c(c1)OCO2 (stereo unspecified)	194 to 195
Cc1cc(-c2c(F)cc3c(=O)c(Cc4c(O)cccc4O)cn(C4CC4)c3c2F)cc(C)n1	308 to 310
O=C(O)C1=CSC2C(=Cc3cc4c(s3)CCSC4)C(=O)N12 (stereo unspecified)	> 250
Cc1ncc2c(c1C#N)COc1ccccc1C2=O	124 to 126
CC(c1oc2ccccc2c(=O)c1-c1cccc(F)c1)n1nc(-c2ccc(Oc3ccccc3)cc2)c2c(N)ncnc21 (stereo unspecified)	218 to 220
O=C(CC[C@H]1CC[C@H](Nc2ncc3ncnc(Nc4ccc(F)c(Cl)c4)c3n2)CC1)N1CCCC1	187 to 192
C=CCC(Oc1cccc(C)c1C)C1=NCCN1 (stereo unspecified)	72 to 74
O=C1OCCc2ccc([N+](=O)[O-])cc21	124 to 125
COc1cc2c(cc1OC)Sc1ccccc1C(Cl)C2 (stereo unspecified)	155 to 160
OCc1cc(-c2nnc3c4ccccc4c(OCc4ccccn4)nn23)no1	129 to 131
COC(=O)c1cccc(Oc2ncccc2C(=O)NCc2ccccc2)c1	119 to 120
CC(=O)OCC1OC(n2ccc(=O)[nH]c2=O)C(Br)C1OC(C)=O (stereo unspecified)	69 to 77
O=C(O)c1ncn2c1[C@@H]1CCCN1C(=O)c1cc(Cl)ccc1-2	227
O=C1C(=c2[nH]c(=c3[nH]c(=C4C(=O)N(c5ccccc5)C(=O)N(c5ccccc5)C4=O)c4ccccc34)c3ccccc23)C(=O)N(c2ccccc2)C(=O)N1c1ccccc1	> 300
C#Cc1cnn2c(C(F)F)cc(-c3cccc(C(F)(F)F)c3)nc12	149
CC(C)(C)OC(=O)CN1C(=O)[C@@H](NC(=O)OC(C)(C)C)CC(=O)c2ccccc21	75 to 77
Cn1ncc2c3cc(Cl)c(Cl)cc3n(C3OC(CO)C(O)C3O)c21 (stereo unspecified)	135 to 138
O=C(Nc1cccc(S(=O)(=O)C(F)(F)F)c1)c1c(O)ccc2ccccc12	179 to 180

Structure (SMILES)	melting point [°C]
COc1cc(OC)c2c(c1)S(=O)(=O)N(CCl)C2=O	185 to 187
O=C(O)c1cn(C2CC2)c2nc(N3Cc4cccc(Cl)c4C3)c(F)cc2c1=O	> 300
O=[N+]([O-])c1c[nH]c(-c2c(Cl)cc(C(F)(F)F)cc2Cl)n1	254 to 255
Cc1oc(-c2ccccc2)nc1Cc1cc2cc(CC3OC(=O)NC3=O)ccc2o1 (stereo unspecified)	190 to 191
CCNc1ccc2ccccc2c1-c1c(P(c2ccccc2)c2ccccc2)ccc2ccccc12	83.1
CCC(=O)SCC(CC(=O)c1ccc(Br)cc1)C(=O)O (stereo unspecified)	122 to 123
CCCOc1cc(Br)ccc1-c1nc2cc3ncn(Cc4ccc(F)cc4)c3cc2c(=O)[nH]1	295 to 297
NC(Cc1ccc(F)cc1)=NO	104 to 106
COC(=O)c1ccc(-c2nnc(-c3cccc(NS(=O)(=O)c4ccc(C)cc4)c3)o2)cc1	227 to 228
Cc1ccc2c(c1)C=Cc1cc(C)ccc1C2c1cn(-c2ccnc(NCC(=O)O)n2)c(=O)[nH]c1=S	205
COc1cc2c(cc1O)C(Cc1cc(Br)c(OC)cc1[N+](=O)[O-])N(C)CC2 (stereo unspecified)	146
O=C(O)Cc1cnc2c(NC(=O)c3c(Cl)cccc3Cl)cccc2c1	> 250
COC1=CC(=O)C(O)=C(CCCCCCCC(O)C(O)CCCCCCCC2=C(O)C(=O)C=C(OC)C2=O)C1=O (stereo unspecified)	132 to 134
CCOc1ccc([N+](=O)[O-])c(NC2Cc3ccccc3C2)c1	151
Cc1oc(-c2ccccc2)nc1COc1ccc(COc2ccc(CCC(=O)O)cc2)cc1	177 to 178
CC(C)(C)c1cc(CCc2ccccc2NC(=O)N2CCN(C(=O)c3ccccc3)CC2)cc(C(C)(C)C)c1O	207 to 209
CN(Cc1ccccc1)C1=N/C(=C\c2c[nH]c3ncc(Cl)cc23)C(=O)N1	310
CC(=O)N(Cc1cccnc1)c1ccc(Cl)cc1	64 to 65
O=C(N[C@H](Cc1cccc(OC(F)(F)C(F)F)c1)[C@@H](O)c1ccc(Oc2ccccc2)cc1)c1cccc2c1C=CCCC2 (racemic)	95 to 96
CN1CCC(c2ccccc2)(c2ccccc2)CC1	71 to 73
COC(=O)C1=C(C)NC(C)=C(C(=O)OCCN2CCN(C(c3ccc(F)cc3)c3ccc(F)cc3)CC2)C1c1cccc(Cl)c1Cl (stereo unspecified)	90 to 93
O=C(O)c1cnc(N2CCC(NS(=O)(=O)c3ccc4ccccc4c3)CC2)nc1	> 260
O=C(Nc1cccc(S(=O)(=O)NCCO)c1)c1cnn2c(C(F)(F)F)cc(-c3ccc(C(F)(F)F)cc3)nc12	227
CC=CC1OC(=O)c2ccc(N)cc21 (stereo unspecified)	125 to 130

Structure (SMILES)	melting point [°C]
O=c1oc2ccccc2cc1S(=O)(=O)Cc1ccc(Cl)cc1Cl	228 to 229
CCCCC(CC)C(=O)Nc1ccc2c(c1)c(Cc1ccc(C(=O)NS(=O)(=O)c3ccccc3)cc1OC)cn2C (stereo unspecified)	169 to 171
CCOC(=O)C=CC(=O)N(CC(C)(C)C)c1sc(Cl)cc1C(=O)c1ccccc1Cl	79 to 81
CN(C)c1nc(-c2ccc(Cl)cc2)c(CCC(=O)O)o1	189 to 190
COc1cc(Oc2ccc(S(C)(=O)=O)nc2)cc2cc(C3=NCC(CC(=O)NCC(C)(C)O)S3)[nH]c12 (stereo unspecified)	173 to 174
N#Cc1ccc(S)c(C#N)c1	180
CC1(C)C2CCC1(CS(=O)(=O)N1CCC3(C=Cc4ccccc43)CC1)C(O)(CC(=O)O)C2 (stereo unspecified)	138 to 140
COc1ccc(-c2cnc(-c3ccccc3)[nH]c2=O)cc1OC	230
CC(C)(CC(O)(C(=O)Nc1ccc([N+](=O)[O-])c(C(F)(F)F)c1)C(F)(F)F)c1ccccc1 (stereo unspecified)	119 to 120
CCCCCCCC1(CCCCCCC)c2cc(Br)ccc2-c2ccc(Br)cc21	45 to 46
CCOC=Nc1sc2c(c1C#N)CCN(C)C2	88 to 89
CN(Cc1ccc(C(=O)O)cc1)c1ccc(Cl)cc1	188 to 191
CC(C)(C)OC(=O)c1ncn2c1C1CCCN1C(=O)c1cnccc1-2 (stereo unspecified)	217 to 218
COc1cc(Nc2c(C#N)cnc3cc(-c4ccc(C=O)cc4)sc23)cc(OC)c1OC	268 to 270
O=C(Nc1ccc2ccc(Cl)nc2n1)c1ccc2c(c1)OCO2	256
CCCCC(=O)CC(=O)c1ccc(C2CCC(CC)CC2)cc1 (stereo unspecified)	90
C=CCc1cc(CC(N)=O)ccc1OCC(O)CNCCC(=O)OCC (stereo unspecified)	98
Nc1c2c(nc3ccccc13)CCCC2N1CCCC1 (stereo unspecified)	201 to 203
COc1cc(C)c2ccc(N)nc2n1	233 to 236
C#CCOc1ccc2c(c1)Sc1cc([N+](=O)[O-])ccc1N2	226 to 227
ClCc1cc(I)cc(I)c1I	97 to 98
CCOC(=O)c1ccc(NC(=O)c2cc(C)no2)cc1	160 to 163
COc1cc2c(cc1OCc1ccccc1)CCN(C(=O)c1ccc(C#N)cc1)C2=O	158 to 159
COc1cc2c(c(Cl)c1Cl)SCC2=O	178 to 180
